In patent US5432260A, “High affinity mannose receptor ligands” (Washington University, priority 1991, dated 1995):

Biological target: T1, purified mannose receptor (Homo sapiens, UniProt P22897)
T1 construct: purified mannose receptor (Lennartz, M. R. et al., J Biol Chem (1987) 262:9942-9944 (supra)) is added; from tissue
T1 sequence (P22897 19-1456): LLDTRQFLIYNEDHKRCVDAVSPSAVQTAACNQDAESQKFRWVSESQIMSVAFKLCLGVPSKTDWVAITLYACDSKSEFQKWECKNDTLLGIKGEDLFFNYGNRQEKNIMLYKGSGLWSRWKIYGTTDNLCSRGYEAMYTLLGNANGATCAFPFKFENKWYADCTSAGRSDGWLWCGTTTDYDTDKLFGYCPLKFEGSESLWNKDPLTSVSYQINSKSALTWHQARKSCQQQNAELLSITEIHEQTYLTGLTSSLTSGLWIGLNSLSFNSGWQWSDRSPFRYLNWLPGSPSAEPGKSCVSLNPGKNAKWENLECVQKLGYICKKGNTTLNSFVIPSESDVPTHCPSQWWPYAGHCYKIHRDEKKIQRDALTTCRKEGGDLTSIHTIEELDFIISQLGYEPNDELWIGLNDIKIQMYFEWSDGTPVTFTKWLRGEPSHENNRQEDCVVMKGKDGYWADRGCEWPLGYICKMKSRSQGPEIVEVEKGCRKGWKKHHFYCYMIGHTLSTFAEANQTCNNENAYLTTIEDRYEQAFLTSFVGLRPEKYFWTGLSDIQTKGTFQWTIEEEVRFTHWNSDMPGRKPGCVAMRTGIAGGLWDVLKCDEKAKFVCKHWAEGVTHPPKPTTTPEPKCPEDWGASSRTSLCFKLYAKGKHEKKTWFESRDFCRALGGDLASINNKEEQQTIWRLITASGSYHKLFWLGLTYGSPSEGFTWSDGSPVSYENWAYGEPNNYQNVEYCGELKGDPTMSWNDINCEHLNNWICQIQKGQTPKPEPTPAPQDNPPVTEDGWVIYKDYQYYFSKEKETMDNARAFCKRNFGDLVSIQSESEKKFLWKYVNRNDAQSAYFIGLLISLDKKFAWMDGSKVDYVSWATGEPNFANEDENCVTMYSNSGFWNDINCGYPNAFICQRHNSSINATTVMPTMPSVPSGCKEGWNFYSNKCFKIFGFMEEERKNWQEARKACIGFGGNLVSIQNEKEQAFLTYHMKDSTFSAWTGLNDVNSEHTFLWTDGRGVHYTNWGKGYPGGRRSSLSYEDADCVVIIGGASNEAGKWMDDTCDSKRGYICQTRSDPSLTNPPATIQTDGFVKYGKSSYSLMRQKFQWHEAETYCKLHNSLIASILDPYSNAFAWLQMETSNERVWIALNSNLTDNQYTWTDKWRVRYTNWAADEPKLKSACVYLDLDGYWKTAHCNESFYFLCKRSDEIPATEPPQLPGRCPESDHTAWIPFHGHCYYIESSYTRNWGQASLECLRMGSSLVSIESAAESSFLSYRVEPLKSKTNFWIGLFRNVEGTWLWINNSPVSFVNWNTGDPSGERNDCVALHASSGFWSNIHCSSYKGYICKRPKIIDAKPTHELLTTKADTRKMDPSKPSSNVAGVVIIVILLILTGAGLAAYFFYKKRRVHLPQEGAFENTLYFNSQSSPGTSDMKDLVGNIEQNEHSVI
Test: Competition of 125I-mannose-BSA binding to isolated mannose receptor on beads
Conditions: for IC50: 125I-mannose-BSA 2 nM, 37° C., 15 minutes, read-out: IC50 (concentration effecting 50% inhibition of 125I-mannose-BSA binding to mannose receptor)
Description: The assay measures the ability of the test compound to inhibit the binding of ^125 I-mannose-BSA, prepared as described, to isolated mannose receptor. To prepare solid supported receptor protein A-sepharose (IgG-SORB) is incubated with rabbit anti-human mannose receptor antiserum for 20 minutes at room temperature. The beads are then washed by sedimentation 3 times in Tris-buffered saline containing 1% Triton X-100, 1% BSA and 15 mM CaCl2 (assay buffer). The beads are then suspended in an assay buffer and purified mannose receptor (Lennartz, M. R. et al., J Biol Chem (1987) 262:9942-9944 (supra)) is added, followed by incubation for 30 minutes at 37° C. The beads are washed again three times to remove unbound receptor.
In the assay, the receptor-linked beads are resuspended in a total volume of 100 μL assay buffer containing 0.1 μCi ^125 I-mannose-BSA (2 nM) prepared according to (Stahl, P. et al., Cell (1980) (supra)) with and without test compound. Following incubation at 37° C. for 15 minutes, the beads are diluted in ice cold buffer and washed three times in the same assay buffer as the dissociation or receptor/ligand at 4° C. is quite slow. The cpm of ^125 I-mannose-BSA remaining in the […] is determined, and the percent inhibition of test compound at various concentrations calculated. The IC50 is then the concentration which effects a 50% inhibition in binding. Nonspecific binding of ligand to beads is determined by adding excess yeast mannan to parallel assays and accounted for in the calculations.
The ^125 I-mannose-BSA used in the assay binds to receptor beads with a Kd of 2 nM as determined in the foregoing assay using unlabeled mannose-BSA as test compound.
The competition was conducted as set forth above, using as test compounds, mannose, oligosaccharides containing 3, 5, 7, 9 or 13 mannose residues linked α1, 4 (Man9 and Man13, respectively) and two proteins known to contain mannose residues, β-glucuronidase and invertase. ^125 I-mannose-BSA at 2 nM was used in the assay and mannose-BSA was used in a control. Varying concentrations of test compound were used to determine the IC50 for each material.
The compounds synthesized in Example 2 were tested in the assay system described in Example 1 above under the conditions therein set forth. FIGS. 2 and 3 show the results. The IC50 (concentration of test compound which effects 50% inhibition of binding of labeled mannose-BSA under the conditions of the assay) can be read from the figures.

Row | fold less effective than the mannose oligosaccharides in inhibiting 125I-mannose-BSA binding (relative to Man9/Man13, FIG. 1) | ability to inhibit the binding of 125I-mannosyl-BSA after digestion with pronase (digested with pronase) | Compound | IC50 [µM]
1 | at least 1,000 fold |  | O=C[C@@H](O)[C@@H](O)[C@H](O)[C@H](O)CO [Mannose, mannose] | 
2 |  | destroyed | Invertase: protein known to contain mannose residues | 0.01 to 0.1
3 |  |  | Man9 | ~20
